Key:
Assay type in all cases: biochemical
Details in all cases: ADP-Glo SIK kinase assay
SIK2 = biological target: T1, SIK2 (Homo sapiens, UniProt Q9H0K1); experiment: ADP-Glo kinase assay, SIK2
T1 construct: purchased ThermoFisher Scientific PV4792
Description: (§1) The ADP-Glo™ kinase assay is a luminescent technology assay which measures the ADP formed from a kinase reaction. […] In a second step the kinase reactions are terminated and all the remaining ATP is depleted. In a final step the ADP is converted into ATP and this newly synthesized ATP is measured by using a luciferase/luciferin reaction. The generated light is measured using an Envision plate reader, wherein the luminescent signal obtained positively correlates with the kinase activity.
(§2) 1% DMSO and 10 μM staurosporine final concentrations are used as negative and positive controls.
(§3) 2 μL enzyme-substrate mixture is added to the assay plates.
(§4) The reaction is started by adding 2 μL diluted ATP on the assay plates. Plates are centrifuged for a few seconds at 1000 rpm and gently shaken for 2 min followed by an incubation at RT for 120 min.
(§5) The reactions are stopped and the unconsumed ATP is depleted by adding 5 μL ADP-Glo Reagent (Promega, Cat #V912B) to the reaction. The plates are centrifuged for a few seconds at 1000 rpm and incubated at RT for 40 min (ATP depletion).
(§6) The ADP is converted to ATP and luciferase and luciferin is introduced to detect ATP by adding 10 μL Kinase Detection Reagent (Promega, Cat #V913B+V914B) to the reaction. The plates are centrifuged for a few seconds at 1000 rpm and incubated at RT for 30 min (ADP detection).
(§7) Luminescence is measured on an Envision plate reader (PerkinElmer Inc.).

SIK3 = biological target: T2, SIK3 (Homo sapiens, UniProt Q9Y2K2); experiment: ADP-Glo kinase assay, SIK3
T2 construct: purchased SignalChem S12-11G-100
Description: as §1, §2, §3, §4, §5, §6, §7

SIK1 = biological target: T3, SIK1 (Homo sapiens, UniProt P57059); experiment: ADP-Glo kinase assay, SIK1
T3 construct: purchased Carna Biosciences 02-131
Description: as §1, §2, §3, §4, §5, §6, §7

T2 sequence (Q9Y2K2 whole entry): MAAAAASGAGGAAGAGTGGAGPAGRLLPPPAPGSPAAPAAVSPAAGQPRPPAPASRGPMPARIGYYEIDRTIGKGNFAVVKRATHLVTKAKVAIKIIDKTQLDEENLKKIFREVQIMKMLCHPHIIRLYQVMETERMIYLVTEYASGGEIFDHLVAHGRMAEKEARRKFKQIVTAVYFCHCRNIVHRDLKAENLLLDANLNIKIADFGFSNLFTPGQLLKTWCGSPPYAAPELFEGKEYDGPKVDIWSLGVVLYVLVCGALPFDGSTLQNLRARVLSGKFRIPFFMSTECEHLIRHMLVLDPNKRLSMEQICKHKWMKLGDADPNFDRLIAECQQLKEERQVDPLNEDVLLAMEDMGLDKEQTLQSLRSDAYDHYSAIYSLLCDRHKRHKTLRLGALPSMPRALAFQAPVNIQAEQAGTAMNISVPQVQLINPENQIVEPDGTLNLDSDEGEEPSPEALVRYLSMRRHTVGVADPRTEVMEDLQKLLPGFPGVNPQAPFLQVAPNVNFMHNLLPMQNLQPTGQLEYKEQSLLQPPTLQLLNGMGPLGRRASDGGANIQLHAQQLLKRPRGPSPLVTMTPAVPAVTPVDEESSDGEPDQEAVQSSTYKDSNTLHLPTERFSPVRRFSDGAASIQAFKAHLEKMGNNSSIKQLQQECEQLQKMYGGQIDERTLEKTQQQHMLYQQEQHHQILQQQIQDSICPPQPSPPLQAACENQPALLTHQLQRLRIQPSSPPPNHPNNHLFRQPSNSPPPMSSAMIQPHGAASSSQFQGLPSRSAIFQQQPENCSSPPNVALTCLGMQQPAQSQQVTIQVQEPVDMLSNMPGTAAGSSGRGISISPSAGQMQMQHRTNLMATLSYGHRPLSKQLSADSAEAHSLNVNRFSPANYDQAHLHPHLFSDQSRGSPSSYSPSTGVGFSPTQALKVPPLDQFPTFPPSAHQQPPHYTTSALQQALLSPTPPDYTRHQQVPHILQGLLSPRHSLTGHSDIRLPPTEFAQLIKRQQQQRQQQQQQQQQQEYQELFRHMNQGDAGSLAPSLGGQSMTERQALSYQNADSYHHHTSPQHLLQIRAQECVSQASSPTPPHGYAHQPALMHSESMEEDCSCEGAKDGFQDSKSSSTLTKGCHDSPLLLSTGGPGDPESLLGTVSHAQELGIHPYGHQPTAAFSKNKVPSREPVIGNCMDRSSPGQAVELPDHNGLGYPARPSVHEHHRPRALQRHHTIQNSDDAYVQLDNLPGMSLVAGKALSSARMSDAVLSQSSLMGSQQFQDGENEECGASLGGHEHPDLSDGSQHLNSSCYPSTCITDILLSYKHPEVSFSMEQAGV
T1 sequence (Q9H0K1 whole entry): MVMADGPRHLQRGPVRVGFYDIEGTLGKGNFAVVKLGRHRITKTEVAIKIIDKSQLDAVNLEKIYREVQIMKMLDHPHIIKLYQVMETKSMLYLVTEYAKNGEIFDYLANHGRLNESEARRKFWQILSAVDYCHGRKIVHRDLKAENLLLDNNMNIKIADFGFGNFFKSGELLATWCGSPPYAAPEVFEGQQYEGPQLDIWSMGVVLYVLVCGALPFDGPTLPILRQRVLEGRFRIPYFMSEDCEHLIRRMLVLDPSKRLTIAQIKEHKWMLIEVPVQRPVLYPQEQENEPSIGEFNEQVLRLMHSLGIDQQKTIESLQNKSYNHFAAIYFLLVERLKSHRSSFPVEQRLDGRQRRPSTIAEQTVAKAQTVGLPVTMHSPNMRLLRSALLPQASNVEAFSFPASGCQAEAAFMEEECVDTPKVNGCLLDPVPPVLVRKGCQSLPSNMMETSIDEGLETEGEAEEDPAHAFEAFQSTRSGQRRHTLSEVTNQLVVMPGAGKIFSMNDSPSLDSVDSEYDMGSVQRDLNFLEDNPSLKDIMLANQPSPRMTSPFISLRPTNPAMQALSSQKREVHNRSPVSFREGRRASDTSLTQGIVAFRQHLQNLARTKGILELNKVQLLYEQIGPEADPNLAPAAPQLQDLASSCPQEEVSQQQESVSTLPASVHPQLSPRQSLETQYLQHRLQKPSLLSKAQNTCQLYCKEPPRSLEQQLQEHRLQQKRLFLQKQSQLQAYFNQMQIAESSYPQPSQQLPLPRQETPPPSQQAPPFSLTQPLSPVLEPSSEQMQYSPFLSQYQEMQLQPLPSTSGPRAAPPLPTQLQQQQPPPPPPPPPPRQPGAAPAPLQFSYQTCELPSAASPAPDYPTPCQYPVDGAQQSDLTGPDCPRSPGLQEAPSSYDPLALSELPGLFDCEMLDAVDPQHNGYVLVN
T3 sequence (P57059 whole entry): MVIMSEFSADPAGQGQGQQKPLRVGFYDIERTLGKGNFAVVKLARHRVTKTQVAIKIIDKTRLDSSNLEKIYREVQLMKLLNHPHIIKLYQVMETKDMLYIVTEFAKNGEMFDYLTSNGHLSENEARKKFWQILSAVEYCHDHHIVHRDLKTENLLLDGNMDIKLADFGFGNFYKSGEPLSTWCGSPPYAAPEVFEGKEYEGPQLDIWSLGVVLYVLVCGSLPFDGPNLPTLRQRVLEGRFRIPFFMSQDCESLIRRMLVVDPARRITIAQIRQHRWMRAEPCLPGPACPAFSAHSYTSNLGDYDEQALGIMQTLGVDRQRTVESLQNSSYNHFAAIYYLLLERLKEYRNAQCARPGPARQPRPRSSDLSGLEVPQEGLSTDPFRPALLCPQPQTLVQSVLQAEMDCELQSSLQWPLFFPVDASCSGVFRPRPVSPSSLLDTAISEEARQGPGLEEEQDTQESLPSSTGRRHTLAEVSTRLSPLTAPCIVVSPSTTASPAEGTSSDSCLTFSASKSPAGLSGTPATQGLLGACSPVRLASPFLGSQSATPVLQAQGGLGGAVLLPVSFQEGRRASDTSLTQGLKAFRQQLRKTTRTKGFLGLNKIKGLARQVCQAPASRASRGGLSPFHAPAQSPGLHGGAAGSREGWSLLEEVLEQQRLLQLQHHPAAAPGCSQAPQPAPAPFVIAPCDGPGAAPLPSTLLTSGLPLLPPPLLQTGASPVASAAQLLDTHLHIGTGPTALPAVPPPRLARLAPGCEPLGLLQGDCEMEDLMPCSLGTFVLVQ

Row | SMILES | IC50 (SIK2) | IC50 (SIK3) | IC50 (SIK1)
1 | COc1cc(-c2cnc3cc(OCC4(C)CNC4)ccn23)cc2c1C(=O)N(CC(F)(F)F)CC2 [Cpd 251, 8-methoxy-6-[7-[(3-methylazetidin-3-yl)methoxy]imidazo [1,2-a]pyridin-3-yl]-2-(2,2,2-trifluoroethyl)-3,4-dihydroisoquinolin-1-one] | 10 to 100 nM | 0.01 to 10 nM | 100 to 500 nM
2 | COc1cc(-c2cnc3cc(OCC(=O)N(C)C)ccn23)cc(OC(F)F)c1C(=O)NC1CC1 [compound 100, N-cyclopropyl-2-(difluoromethoxy)-4-[7-[2-(dimethylamino)-2-oxo-ethoxy]imidazo[1,2-a]pyridin-3-yl]-6-methoxy-benzamide] | 10 to 100 nM | 10 to 100 nM | 100 to 500 nM
3 | COc1cc(-c2cnc3cc(OCCF)ccn23)cc(OC(F)F)c1C(=O)NC1CC1 [compound 36, N-cyclopropyl-2-(difluoromethoxy)-4-[7-(2-fluoroethoxy)imidazo[1,2-a]pyridin-3-yl]-6-methoxy-benzamide] | 0.01 to 10 nM | 0.01 to 10 nM | 10 to 100 nM
4 | COc1cc(-c2cnc3cc(OC4CCOCC4)ccn23)cc(OC(F)F)c1C(=O)NC1CC1 [compound 1, N-cyclopropyl-2-(difluoromethoxy)-6-methoxy-4-(7-tetrahydropyran-4-yloxyimidazo[1,2-a]pyridin-3-yl)benzamide] | 100 to 500 nM | 0.01 to 10 nM | 100 to 500 nM
5 | COc1cc(-c2cnc3cc(OCCN4CCOC(C)(C)C4)ccn23)cc(OC(F)F)c1C(=O)NC1CC1 [compound 194, N-cyclopropyl-2-(difluoromethoxy)-4-[7-[2-(2,2-dimethylmorpholin-4-yl)ethoxy]imidazo[1,2-a]pyridin-3-yl]-6-methoxy-benzamide] | 0.01 to 10 nM | 0.01 to 10 nM | 10 to 100 nM
6 | COc1cc(-c2cnc3cc(OCc4cncn4C)ccn23)cc(OC(F)F)c1C(=O)NC1CC1 [compound 19, N-cyclopropyl-2-(difluoromethoxy)-6-methoxy-4-[7-[(3-methylimidazol-4-yl)methoxy]imidazo[1,2-a]pyridin-3-yl]benzamide] | 0.01 to 10 nM | 0.01 to 10 nM | 10 to 100 nM
7 | COc1cc(-c2cnc3cc(OCC4CN(C)CCO4)ccn23)cc(OC(F)F)c1C(=O)NC1CC1 (stereo not drawn) [compound 82, N-cyclopropyl-2-(difluoromethoxy)-6-methoxy-4-[7-[(4-methylmorpholin-2-yl)methoxy]imidazo[1,2-a]pyridin-3-yl]benzamide] | 0.01 to 10 nM | 0.01 to 10 nM | 10 to 100 nM
8 | COc1cc(-c2cnc3cc(OCC(C)(C)OC)ccn23)cc(OC(F)F)c1C(=O)NC1CC1 [compound 3, N-cyclopropyl-2-(difluoromethoxy)-6-methoxy-4-[7-(2-methoxy-2-methyl-propoxy)imidazo[1,2-a]pyridin-3-yl]benzamide] | 0.01 to 10 nM | 0.01 to 10 nM | 10 to 100 nM
9 | COCCOCCOc1ccn2c(-c3cc(OC)c(C(=O)NC4CC4)c(OC(F)F)c3)cnc2c1 [compound 38, N-cyclopropyl-2-(difluoromethoxy)-6-methoxy-4-[7-[2-(2-methoxyethoxy)ethoxy]imidazo[1,2-a]pyridin-3-yl]benzamide] | 0.01 to 10 nM | 0.01 to 10 nM | 10 to 100 nM
10 | COc1cc(-c2cnc3cc(OCC4CCCCC4)ccn23)cc(OC(F)F)c1C(=O)NC1CC1 [compound 69, 4-[7-(cyclohexylmethoxy)imidazo[1,2-a]pyridin-3-yl]-N-cyclopropyl-2-(difluoromethoxy)-6-methoxy-benzamide] | 0.01 to 10 nM | 0.01 to 10 nM | 10 to 100 nM
11 | COc1cc(-c2cnc3cc(OCc4ncccn4)ccn23)cc(OC(F)F)c1C(=O)NC1CC1 [compound 94, N-cyclopropyl-2-(difluoromethoxy)-6-methoxy-4-[7-(pyrimidin-2-ylmethoxy)imidazo[1,2-a]pyridin-3-yl]benzamide] | 10 to 100 nM | 10 to 100 nM | 10 to 100 nM
12 | COc1cc(-c2cnc3cc(OCc4cc(C)nn4C)ccn23)cc(OC(F)F)c1C(=O)NC1CC1 [compound 198, N-cyclopropyl-2-(difluoromethoxy)-4-[7-[(2,5-dimethylpyrazol-3-yl)methoxy]imidazo[1,2-a]pyridin-3-yl]-6-methoxy-benzamide] | 0.01 to 10 nM | 0.01 to 10 nM | 10 to 100 nM
13 | O=C1c2c(cc(-c3cnc4cc(OCCN5CCOCC5)ccn34)cc2OC(F)F)CCN1CC(F)F [Cpd 247, 2-(2,2-difluoroethyl)-8-(difluoromethoxy)-6-[7-(2-morpholinoethoxy)imidazo[1,2-a]pyridin-3-yl]-3,4-dihydroisoquinolin-1-one] | 0.01 to 10 nM | 0.01 to 10 nM | 100 to 500 nM
14 | COc1cc(-c2cnc3cc(OC[C@H]4CNCC[C@@H]4O)ccn23)cc(OC(F)F)c1C(=O)NC1CC1 (racemic) [Cpd 373, N-cyclopropyl-2-(difluoromethoxy)-4-[7-[[(3R,4S)-4-hydroxy-3-piperidyl]methoxy]imidazo [1,2-a]pyridin-3-yl]-6-methoxy-benzamide/ N-cyclopropyl-2-(difluoromethoxy)-4-[7-[[(3S,4R)-4-hydroxy-3-piperidyl]methoxy]imidazo [1,2-a]pyridin-3-yl]-6-methoxy-benzamide mixture] | 0.01 to 10 nM | 0.01 to 10 nM | 10 to 100 nM
15 | COc1cc(-c2cnc3cc(OCCN(C)c4ccccn4)ccn23)cc(OC(F)F)c1C(=O)NC1CC1 [Cpd 183, N-cyclopropyl-2-(difluoromethoxy)-6-methoxy-4-[7-[2-[methyl(2-pyridyl)amino]ethoxy]imidazo[1,2-a]pyridin-3-yl]benzamide] | 0.01 to 10 nM | 0.01 to 10 nM | 0.01 to 10 nM

Now from value to molecule:

Row | IC50 (SIK2) | IC50 (SIK3) | IC50 (SIK1) | SMILES
16 | 0.01 to 10 nM | 0.01 to 10 nM | 10 to 100 nM | COc1cc(-c2cnc3cc(OCC4(F)CNC4)ccn23)cc(OC(F)F)c1C(=O)NC1CC1 [compound 207, N-cyclopropyl-2-(difluoromethoxy)-4-[7-[(3-fluoroazetidin-3-yl)methoxy]imidazo[1,2-a]pyridin-3-yl]-6-methoxy-benzamide]
17 | 0.01 to 10 nM | 0.01 to 10 nM | 10 to 100 nM | COC(=O)C1CN(CCOc2ccn3c(-c4cc(OC)c(C(=O)NC5CC5)c(OC(F)F)c4)cnc3c2)C1 [compound 393, methyl 1-[2-[3-[4-(cyclopropylcarbamoyl)-3-(difluoromethoxy)-5-methoxy-phenyl]imidazo[1,2-a]pyridin-7-yl]oxyethyl]azetidine-3-carboxylate]
18 | 10 to 100 nM | 100 to 500 nM | 100 to 500 nM | COc1cc(-c2cnc3cc(OCCCN4CCCCC4)ccn23)cc(OC(F)F)c1C(=O)N1CC(O)(CC#N)C1 [compound 355, 2-[1-[2-(difluoromethoxy)-6-methoxy-4-[7-[3-(1-piperidyl)propoxy]imidazo[1,2-a]pyridin-3-yl]benzoyl]-3-hydroxy-azetidin-3-yl]acetonitrile]
19 | 0.01 to 10 nM | 0.01 to 10 nM | 0.01 to 10 nM | COc1cc(-c2cnc3cc(OCCN4CCCC(F)(F)C4)ccn23)cc(OC(F)F)c1C(=O)NC1CC1 [compound 211, N-cyclopropyl-2-(difluoromethoxy)-4-[7-[2-(3,3-difluoro-1-piperidyl)ethoxy]imidazo [1,2-a]pyridin-3-yl]-6-methoxy-benzamide]
20 | 0.01 to 10 nM | 0.01 to 10 nM | 10 to 100 nM | COc1cc(-c2cnc3cc(OC[C@@H]4CCN(C5COC5)C4)ccn23)cc(OC(F)F)c1C(=O)NC1CC1 [compound 336, N-cyclopropyl-2-(difluoromethoxy)-6-methoxy-4-[7-[[(3R)-1-(oxetan-3-yl)pyrrolidin-3-yl]methoxy]imidazo[1,2-a]pyridin-3-yl]benzamide]
21 | 0.01 to 10 nM | 0.01 to 10 nM | 0.01 to 10 nM | COc1cc(-c2cnc3cc(OCCN(C)c4ncccn4)ccn23)cc(OC(F)F)c1C(=O)NC1CC1 [compound 238, N-cyclopropyl-2-(difluoromethoxy)-6-methoxy-4-[7-[2-[methyl(pyrimidin-2-yl)amino]ethoxy]imidazo [1,2-a]pyridin-3-yl]benzamide]
22 | 100 to 500 nM | 100 to 500 nM | > 500 nM | COc1cc(-c2cnc3cc(OC[C@H]4COCCO4)ccn23)cnc1C(=O)NCC(F)(F)F [compound 265, 5-[7-[[(2R)-1,4-dioxan-2-yl]methoxy]imidazo[1,2-a]pyridin-3-yl]-3-methoxy-N-(2,2,2-trifluoroethyl)pyridine-2-carboxamide]
23 | 0.01 to 10 nM | 0.01 to 10 nM | 10 to 100 nM | COc1cc(-c2cnc3cc(OCCCN4CCn5ncnc5C4)ccn23)cc(OC(F)F)c1C(=O)NC1CC1 [compound 313, N-cyclopropyl-2-(difluoromethoxy)-4-[7-[3-(6,8-dihydro-5H-[1,2,4]triazolo[1,5-a]pyrazin-7-yl)propoxy]imidazo[1,2-a]pyridin-3-yl]-6-methoxy-benzamide]

Source: US12264156B2, “Compounds and pharmaceutical compositions thereof for the treatment of diseases” (GALAPAGOS NV, priority 2018, dated 2025)
